Measured values from US9157105B2, “Biosynthesis of CMP-legionaminic acid from fructose-6-P, and respective pathway intermediates, using novel GDP-linked precursors” (priority 2008, dated 2015).

Key:
Assay type in all cases: biochemical, Campylobacter jejuni 11168
[1] = molecular target: T1, His6LegG (Cj1328, NDP-sugar hydrolase/2-epimerase) (Campylobacter jejuni subsp. jejuni serotype O:2, UniProt Q0P8T0); assay: His6LegG activity and substrate flexibility (1H NMR, CE); conditions: 4 μg LegG, 0.75 mM substrate, 25° C., in-tube 1H NMR
T1 construct: made in house; host or cells: E. coli BL21[DE3]
T1 sequence (Q0P8T0 whole entry): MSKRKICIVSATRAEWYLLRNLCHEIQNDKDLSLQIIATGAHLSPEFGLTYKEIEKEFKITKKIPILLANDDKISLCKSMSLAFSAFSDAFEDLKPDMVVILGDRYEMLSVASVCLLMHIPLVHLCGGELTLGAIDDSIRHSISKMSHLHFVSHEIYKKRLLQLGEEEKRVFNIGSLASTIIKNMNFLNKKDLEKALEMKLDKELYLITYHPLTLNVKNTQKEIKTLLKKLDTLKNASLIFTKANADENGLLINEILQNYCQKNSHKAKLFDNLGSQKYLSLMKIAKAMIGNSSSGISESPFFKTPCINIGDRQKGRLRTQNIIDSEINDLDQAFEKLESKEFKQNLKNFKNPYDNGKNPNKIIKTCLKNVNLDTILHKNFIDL
Protocol: Enzymatic reactions were performed for 4.5 h at 37° C., and then overnight at 25° C., with approximately 200 μg ml^−1 respective protein concentration using chemicals from Sigma (unless otherwise indicated). GDP-glucosamine biosynthesis. The ‘one-pot’ enzymatic synthesis of GDP-GlcN from Fru-6-P (I→IV) was accomplished using a 3 ml reaction containing His6PtmF, PtmAHis6, PgmLHis6, His6PtmE, 5 mM Fru-6-P (I), 10 mM L-Gln, 1 mM DTT, 5 mM MgCl2, 0.8 U ml^−1 pyrophosphatase, and 2.5 mM GTP in 25 mM Tris pH 7.5. Large-scale enzymatic synthesis of GDP-GlcN (IV) was accomplished using a 12 ml reaction containing 50 mM Tris pH 7.5, 1 mM GTP, 1 mM MgCl2, 0.8 U ml^−1 pyrophosphatase, 1.2 mM GlcN-1-P (III) and approximately 4.8 mg of His6PtmE. The large-scale enzymatic synthesis of GDP-GlcNAc was performed similar to that above, except the scale was increased five-fold and GlcNAc-1-P was used in place of GlcN-1-P (III). Assessment of His6PtmE substrate specificity was accomplished using 9 reactions, 80 μl each, containing 50 mM Tris pH 7.5, 2 mM MgCl2, 50 μg His6PtmE, and various combinations of 10 mM sugar-1-P (GalN-1-P, GlcN-1-P or GlcNAc-1-P) and 0.2 mM NTP (CTP, GTP, or TTP). Conversion of GDP-GlcN to GDP-GlcNAc. The His6GlmU reaction was performed using 1 mM GDP-GlcN (IV), 1.2 mM acetyl-CoA and His6GlmU in 25 mM sodium phosphate pH 7.8, 25 mM NaCl, 10 mM β-mercaptoethanol. In addition, a control reaction was performed containing 1 mM GlcN-1-P (III) instead of IV. Biosynthesis of legionaminic acid from GDP-GlcNAc. The stepwise enzymatic synthesis of intermediates or products was accomplished in 2 stages (V→VI→VII→VIII, and then VIII→IX→X) using 1 mM of V, 0.5 mM NAD, 0.8 mM PLP, 8 mM L-Glu, 1.2 mM acetyl-CoA, 1.2 mM PEP, LegBHis6, His6LegC, His6LegH, His6LegG, and His6LegI as appropriate, in 25 mM sodium phosphate pH 7.3, 25 mM NaCl. Assessment of His6LegG activity involved monitoring the reaction kinetics by ^1H NMR (see NMR spectroscopy) for 75 min using 0.75 mM GDP-2,4-diacetamido-2,4,6-trideoxy-α-D-Glc (VIII), 4 μg His6LegG in 200 μl of 25 mM sodium phosphate pH 7.3, 25 mM NaCl at 25° C. In addition, the substrate flexibility of His6LegG was assessed using a 300 μl reaction containing 40 μg His6LegG, 25 mM sodium phosphate pH 7.3, 25 mM NaCl, and 0.75 mM UDP-2,4-diacetamido-2,4,6-trideoxy-α-D-Glc, with incubation at 37° C. for 1.5 h, and then overnight at 25° C. Biosynthesis of CMP-legionaminic acid. […] Quantification of NDP-sugar preparations was determined using the molar extinction coefficients of CMP (ε260=7,400), GDP (ε260=11,500), TDP (ε260=8,700), and UDP (ε260=10,000). […]

[2] = test system: His6PtmE (Cj1329, nucleotidyltransferase); assay: His6PtmE substrate specificity (sugar-1-P acceptors and NTP donors); conditions: for PtmE activity with sugar-1-P acceptor: 10 mM sugar-1-P, 0.2 mM NTP, 30 min at 37° C.; for PtmE NTP donor specificity with this sugar acceptor: NTP = CTP, GTP or TTP
Protocol: […] GDP-glucosamine biosynthesis. The ‘one-pot’ enzymatic synthesis of GDP-GlcN from Fru-6-P (I→IV) was accomplished using a 3 ml reaction containing His6PtmF, PtmAHis6, PgmLHis6, His6PtmE, 5 mM Fru-6-P (I), 10 mM L-Gln, 1 mM DTT, 5 mM MgCl2, 0.8 U ml^−1 pyrophosphatase, and 2.5 mM GTP in 25 mM Tris pH 7.5. Large-scale enzymatic synthesis of GDP-GlcN (IV) was accomplished using a 12 ml reaction containing 50 mM Tris pH 7.5, 1 mM GTP, 1 mM MgCl2, 0.8 U ml^−1 pyrophosphatase, 1.2 mM GlcN-1-P (III) and approximately 4.8 mg of His6PtmE. The large-scale enzymatic synthesis of GDP-GlcNAc was performed similar to that above, except the scale was increased five-fold and GlcNAc-1-P was used in place of GlcN-1-P (III). Assessment of His6PtmE substrate specificity was accomplished using 9 reactions, 80 μl each, containing 50 mM Tris pH 7.5, 2 mM MgCl2, 50 μg His6PtmE, and various combinations of 10 mM sugar-1-P (GalN-1-P, GlcN-1-P or GlcNAc-1-P) and 0.2 mM NTP (CTP, GTP, or TTP). Conversion of GDP-GlcN to GDP-GlcNAc. The His6GlmU reaction was performed using 1 mM GDP-GlcN (IV), 1.2 mM acetyl-CoA and His6GlmU in 25 mM sodium phosphate pH 7.8, 25 mM NaCl, 10 mM β-mercaptoethanol. In addition, a control reaction was performed containing 1 mM GlcN-1-P (III) instead of IV. Biosynthesis of legionaminic acid from GDP-GlcNAc. The stepwise enzymatic synthesis of intermediates or products was accomplished in 2 stages (V→VI→VII→VIII, and then VIII→IX→X) using 1 mM of V, 0.5 mM NAD, 0.8 mM PLP, 8 mM L-Glu, 1.2 mM acetyl-CoA, 1.2 mM PEP, LegBHis6, His6LegC, His6LegH, His6LegG, and His6LegI as appropriate, in 25 mM sodium phosphate pH 7.3, 25 mM NaCl. Assessment of His6LegG activity involved monitoring the reaction kinetics by ^1H NMR (see NMR spectroscopy) for 75 min using 0.75 mM GDP-2,4-diacetamido-2,4,6-trideoxy-α-D-Glc (VIII), 4 μg His6LegG in 200 μl of 25 mM sodium phosphate pH 7.3, 25 mM NaCl at 25° C. In addition, the substrate flexibility of His6LegG was assessed using a 300 μl reaction containing 40 μg His6LegG, 25 mM sodium phosphate pH 7.3, 25 mM NaCl, and 0.75 mM UDP-2,4-diacetamido-2,4,6-trideoxy-α-D-Glc, with incubation at 37° C. for 1.5 h, and then overnight at 25° C. Biosynthesis of CMP-legionaminic acid. The CMP-activation of legionaminic acid (X→XI) was performed using a 20 ml reaction containing approximately 0.2 mM of X, 50 mM MgCl2, 3 mM CTP, and 15 mg of LegFHis6 in 25 mM sodium phosphate pH 7.8, 25 mM NaCl, with incubation at 37° C. for 5 h, and then 25° C. for 72 h. Metabolite purification. Typically, reactions were passed through an Amicon Ultra-15 (10,000 molecular weight cut-off) or Ultra-4 (5,000 molecular weight cut-off) filter membrane before analysis. As required, NDP-sugar preparations (GDP-Glc, GDP-GlcN, GDP-GlcNAc, CDP-GlcNAc, TDP-GlcNAc, and CMP-Leg) were lyophilized and desalted/purified using a Superdex Peptide 10/300 GL (Amersham Biosciences) column in 25 mM ammonium bicarbonate, pH 7.9. For further purity, the NDP-sugar samples above were subjected to anion-exchange chromatography (Mono Q 4.6/100 PE, Amersham Biosciences) using ammonium bicarbonate pH 7.9. Quantification of NDP-sugar preparations was determined using the molar extinction coefficients of CMP (ε260=7,400), GDP (ε260=11,500), TDP (ε260=8,700), and UDP (ε260=10,000).
(§1) CE analysis was performed using either a P/ACE 5510 or P/ACE MDQ system (Beckman Instruments, Mississauga, Ont) with diode array detection. The capillaries were bare silica 50 μm×50 cm, with a detector at 50 cm, and the running buffer was 25 mM sodium tetraborate pH 9.4. Samples were introduced by pressure injection for 6 sec, and the separation was performed at 18 kV for 20 min. Peak integration was done using the Beckman P/ACE station software.

[3] = test system: LegB (Cj1319, 4,6-dehydratase); assay: LegB C4,6 dehydratase reaction with NDP-sugars; conditions: in the presence or absence of NAD(P)+
Protocol: Enzymatic reactions were performed for 4.5 h at 37° C., and then overnight at 25° C., with approximately 200 μg ml^−1 respective protein concentration using chemicals from Sigma (unless otherwise indicated). GDP-glucosamine biosynthesis. The ‘one-pot’ enzymatic synthesis of GDP-GlcN from Fru-6-P (I→IV) was accomplished using a 3 ml reaction containing His6PtmF, PtmAHis6, PgmLHis6, His6PtmE, 5 mM Fru-6-P (I), 10 mM L-Gln, 1 mM DTT, 5 mM MgCl2, 0.8 U ml^−1 pyrophosphatase, and 2.5 mM GTP in 25 mM Tris pH 7.5. Large-scale enzymatic synthesis of GDP-GlcN (IV) was accomplished using a 12 ml reaction containing 50 mM Tris pH 7.5, 1 mM GTP, 1 mM MgCl2, 0.8 U ml^−1 pyrophosphatase, 1.2 mM GlcN-1-P (III) and approximately 4.8 mg of His6PtmE. The large-scale enzymatic synthesis of GDP-GlcNAc was performed similar to that above, except the scale was increased five-fold and GlcNAc-1-P was used in place of GlcN-1-P (III). Assessment of His6PtmE substrate specificity was accomplished using 9 reactions, 80 μl each, containing 50 mM Tris pH 7.5, 2 mM MgCl2, 50 μg His6PtmE, and various combinations of 10 mM sugar-1-P (GalN-1-P, GlcN-1-P or GlcNAc-1-P) and 0.2 mM NTP (CTP, GTP, or TTP). Conversion of GDP-GlcN to GDP-GlcNAc. The His6GlmU reaction was performed using 1 mM GDP-GlcN (IV), 1.2 mM acetyl-CoA and His6GlmU in 25 mM sodium phosphate pH 7.8, 25 mM NaCl, 10 mM β-mercaptoethanol. In addition, a control reaction was performed containing 1 mM GlcN-1-P (III) instead of IV. Biosynthesis of legionaminic acid from GDP-GlcNAc. The stepwise enzymatic synthesis of intermediates or products was accomplished in 2 stages (V→VI→VII→VIII, and then VIII→IX→X) using 1 mM of V, 0.5 mM NAD, 0.8 mM PLP, 8 mM L-Glu, 1.2 mM acetyl-CoA, 1.2 mM PEP, LegBHis6, His6LegC, His6LegH, His6LegG, and His6LegI as appropriate, in 25 mM sodium phosphate pH 7.3, 25 mM NaCl. Assessment of His6LegG activity involved monitoring the reaction kinetics by ^1H NMR (see NMR spectroscopy) for 75 min using 0.75 mM GDP-2,4-diacetamido-2,4,6-trideoxy-α-D-Glc (VIII), 4 μg His6LegG in 200 μl of 25 mM sodium phosphate pH 7.3, 25 mM NaCl at 25° C. In addition, the substrate flexibility of His6LegG was assessed using a 300 μl reaction containing 40 μg His6LegG, 25 mM sodium phosphate pH 7.3, 25 mM NaCl, and 0.75 mM UDP-2,4-diacetamido-2,4,6-trideoxy-α-D-Glc, with incubation at 37° C. for 1.5 h, and then overnight at 25° C. Biosynthesis of CMP-legionaminic acid. The CMP-activation of legionaminic acid (X→XI) was performed using a 20 ml reaction containing approximately 0.2 mM of X, 50 mM MgCl2, 3 mM CTP, and 15 mg of LegFHis6 in 25 mM sodium phosphate pH 7.8, 25 mM NaCl, with incubation at 37° C. for 5 h, and then 25° C. for 72 h. Metabolite purification. Typically, reactions were passed through an Amicon Ultra-15 (10,000 molecular weight cut-off) or Ultra-4 (5,000 molecular weight cut-off) filter membrane before analysis. As required, NDP-sugar preparations (GDP-Glc, GDP-GlcN, GDP-GlcNAc, CDP-GlcNAc, TDP-GlcNAc, and CMP-Leg) were lyophilized and desalted/purified using a Superdex Peptide 10/300 GL (Amersham Biosciences) column in 25 mM ammonium bicarbonate, pH 7.9. For further purity, the NDP-sugar samples above were subjected to anion-exchange chromatography (Mono Q 4.6/100 PE, Amersham Biosciences) using ammonium bicarbonate pH 7.9. Quantification of NDP-sugar preparations was determined using the molar extinction coefficients of CMP (ε260=7,400), GDP (ε260=11,500), TDP (ε260=8,700), and UDP (ε260=10,000).
as §1

| SMILES | time to near completion of formation of IX by LegG [1] [min] | PtmE activity with sugar-1-P acceptor [2] | PtmE NTP donor specificity with this sugar acceptor [2] | LegB reaction product formation [3] |
| --- | --- | --- | --- | --- |
| CC(=O)N[C@H]1[C@@H](OP(=O)(O)OP(=O)(O)OC[C@H]2O[C@@H](n3cnc4c(=O)[nH]c(N)nc43)[C@H](O)[C@@H]2O)O[C@H](C)[C@@H](NC(C)=O)[C@@H]1O [VIII, GDP-2,4-diacetamido-2,4,6-trideoxy-α-D-glucose] | ≤ 75 |  |  |  |
| CC(=O)N[C@H]1[C@@H](OP(=O)(O)O)O[C@H](CO)[C@@H](O)[C@@H]1O [GlcNAc-1-P, N-acetyl-α-D-glucosamine-1-phosphate] |  | activity was observed | exhibited promiscuity with respect to activator NTP donors |  |
| CC(=O)NC1C(OP(=O)(O)OP(=O)(O)OCC2OC(n3ccc(N)nc3=O)C(O)C2O)OC(CO)C(O)C1O (stereo not shown) [CDP-GlcNAc, CDP-N-acetyl-glucosamine] |  |  |  | did not yield discernable product |
| CC(=O)NC1C(OP(=O)(O)OP(=O)(O)OCC2OC(n3cc(C)c(=O)[nH]c3=O)CC2O)OC(CO)C(O)C1O (stereo not shown) [TDP-GlcNAc, TDP-N-acetyl-glucosamine] |  |  |  | did not yield discernable product |
| N[C@H]1[C@@H](OP(=O)(O)O)O[C@H](CO)[C@@H](O)[C@@H]1O [III, α-D-glucosamine-1-phosphate] |  | activity was observed | absolutely specific for GTP |  |
